Data: US10556860B2, “hTERT modulators and methods of use” (Arizona Board of Regents on Behalf of the University of …, priority 2015, dated 2020)

Experiments:
Telomeric G4 = test: CD melting (Tm), telomeric G4; format: binding
Protocol: Circular dichroism. Oligomers of WT, G124A, G124/125A, G138/139A and G146A were synthesized and HPSF-purified by MGW Operon, Inc. For CD analysis, oligomers (5 μM) in a buffer containing 10 mM Tris-HCl (pH 7.5) and 140 mM KCl were annealed. For the CD analysis of the complex of oligomers and compounds, oligomers (5 μM) in a buffer containing 10 mM Tris-HCl (pH 7.5) and 5 mM KCl for GTC365 or 1 mM KCl for BRACO-19 were annealed. Oligomers and GTC365 or BRACO-19 were incubated overnight at room temperature. For the full-length of C-rich strand, the oligomer in a buffer of 10 mM Na cacodylate (pH 6.6) was annealed and then incubated with GTC365 overnight. CD analysis was conducted on a Jasco 810 spectropolarimeter (Jasco, Easton, Md.) using a quartz cell with 1 mm of path length, 1 nm of band width, and 1 s of response time for spectra at 20° C. Melting curves for the determination of Tm were obtained by recording ellipticity at 262 nm with increasing temperatures from 25° C. to 95° C. at a rate of 1.6° C./min. Tm of the C-rich strand with GTC365 was obtained from the CD signal at 286 nm within 10-60° C.
CD and DMS footprinting analyses were conducted to characterize the binding of GTC365 and BRACO-19 to the 5-12 G-quadruplex. […] To verify the effects of compounds on the thermal stability of the WT and the mutant G-quadruplexes, Tms were determined by CD. […] Since acridine derivatives are known to bind to telomeric G-quadruplex, the effects of GTC365 and BRACO-19 on telomeric G-quadruplex stability were compared by CD.
In contrast, BRACO-19 increased the Tm of telomeric G-quadruplex by ˜60% compared to that of the hTERT G-quadruplex at 0.5 and 1 equiv. A summary of the comparative Tms of GTC365 and BRACO-19 in hTERT and telomeric DNA is shown below.

[1] = test system: hTERT core promoter (pGL3-WT); test: Luciferase assay, pGL3-WT in MCF7 cells; format: cell-based, human; conditions: 24 h
Protocol: Luciferase assay. From gDNA extracted from HeLa cells, the hTERT core promoter region, including −350 bp to +12 from the transcription start site, was amplified using a pair of primers, including KpnI and NheI restriction sites, for cloning of pGL3-hTERT with WT promoter sequence. Mutant constructs were generated by PCR-based site-directed mutagenesis. The sequence of each construct was confirmed by sequencing analysis. MCF7 cells in 24-well plate were transfected with 200 ng of pGL3 construct and 5 ng of pRL-TK by Fugene® HD Transfection Reagent and then incubated for 6 h. Media were replaced by fresh ones and the cells were treated with GTC365 or BRACO-19. The same volume of DMSO served as a control. […]
Since MYC is a key transcription factor for activation of the hTERT gene by binding to an E-box in the hTERT promoter region and is one of the oncogenes having a G-quadruplex structure in the promoter region, it was important to confirm that GTC365 affects the repression of hTERT promoter activity directly by binding to the G-quadruplex structure formed in the hTERT promoter and not by binding to the G-quadruplex in the MYC promoter. To distinguish between these possibilities, the luciferase activity of the pGL3-WT and pGL3-E-box mutant constructs were determined after treatment with GTC365. […]

BCL2 mRNA = test: qPCR of BCL2 mRNA in MCF7 cells; format: cell-based, human; conditions: 72 h
Protocol: (§1) qPCR. MCF7 and melanoma cells were treated with GTC365 and BRACO-19 for 72 h. Total RNA was extracted using an RNeasy mini-prep kit (Qiagen) and quantitated by measuring absorbance at 260 nm. cDNA was synthesized using a Takara PrimeScript™ RT Reagent Kit with gDNA eraser and then used as a template for qPCR. The qPCR was performed using Kapa Probe Fast qPCR Master Mix with ABI Taqman probes of hTERT (Hs00972656_m1), BCL2 (HS00608023_m1, FAM-labeled) or MYC (Hs00153408_m1), and GAPDH (Hs02758991_g1, VIC-labeled). The Ct values were measured by running Rotor-Gene Q, and the relative quantity of hTERT, BCL2, and MYC mRNA was obtained compared to GAPDH as an internal control.
(§2) BCL2 is a downstream molecule to hTERT such that BCL2 expression is activated by hTERT to repress apoptosis. To further define the effect of GTC365 on the transcription of hTERT, the relative mRNA levels of MYC and BCL2 were determined by quantitative PCR analysis in MCF7 cells after treatment with GTC365 for 72 h. […] A series of GTC260 analogs were synthesized and their effect on hTERT gene expression in MCF7A and U87 cells determined (FIG. 7). […] Therefore, GTC365 directly repressed the transcription of hTERT and then led to a downstream decrease of BCL2 expression.

hTERT mRNA = test: qPCR of hTERT mRNA in MCF7 cells; format: cell-based, human
Protocol: as §1, §2

SMILES | Tm increase of telomeric G-quadruplex less than that of the hTERT G-quadruplex (Telomeric G4; 1 and 2 equiv) [%] | increase in Tm (ΔTm) (Telomeric G4; 1 equivalent) [°C] | increase in Tm (ΔTm) (Telomeric G4; 2 equivalents) [°C] | luciferase activity [1] | decrease of BCL2 mRNA level (BCL2 mRNA; 1 μM) | effect on hTERT transcription / mRNA level (hTERT mRNA) | decrease of hTERT mRNA level (hTERT mRNA; 72 h, 1 μM) | Tm of telomeric G-quadruplex increased compared to that of the hTERT G-quadruplex (Telomeric G4; 0.5 and 1 equiv) [%] | increase in Tm (ΔTm) (Telomeric G4; 0.5 equivalents) [°C] | effect on BCL2 mRNA level (BCL2 mRNA)
N=C(N)NCCCS(=O)(=O)Nc1ccc(Nc2c3ccccc3nc3cc([N+](=O)[O-])ccc23)cc1 [GTC365] | 42 | 4.4 | 7.5 | dose-dependent decrease | up to 18% | significant effect | up to 67% | – | – | –
CN(C)c1ccc(Nc2c3ccc(NC(=O)CCN4CCCC4)cc3nc3cc(NC(=O)CCN4CCCC4)ccc23)cc1 [BRACO-19, reference compound] | – | 14.6 | – | decreased | – | decreased | – | ~60 | 4.24 | no significant effect
